Among the data in ChEMBL document CHEMBL1122381, “Synthesis and antitumor activity of 7- and 9-(6'-deoxy-alpha-L-talofuranosyl) hypoxanthine and 9-(6'-deoxy-alpha-L-talofuranosyl)-6-thiopurine” (1983) are inhibition and T/C values, retold here.

Usually inhibition stands for how much of the control response was suppressed.

Experiment [1] has as its system L1210. Nature of the experiment: Antitumor activity against L1210 tumor cell growth in vitro and the value is expressed as % inhibition at a dose of 1 ug/mL. The conditions noted are these: Mus musculus. It is filed as functional.
In experiment [2] the test system is L1210. Nature of the experiment: Antitumor activity against L1210 tumor cells in vivo and the value is expressed as T / C ([…]) at a dose of 10000 ug/kg. Format: functional, Mus musculus.
Experiment [3] addresses T1, Purine nucleoside phosphorylase (Bos taurus) (UniProt P55859).
T1 sequence (whole entry): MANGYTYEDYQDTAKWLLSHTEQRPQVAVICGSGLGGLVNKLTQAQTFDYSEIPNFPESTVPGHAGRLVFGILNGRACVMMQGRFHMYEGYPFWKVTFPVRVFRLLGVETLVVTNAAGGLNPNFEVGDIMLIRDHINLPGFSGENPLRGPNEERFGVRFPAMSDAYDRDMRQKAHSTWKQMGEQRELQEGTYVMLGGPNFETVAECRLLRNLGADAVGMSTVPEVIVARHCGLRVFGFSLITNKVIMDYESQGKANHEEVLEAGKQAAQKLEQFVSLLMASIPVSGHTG
Nature of the experiment: Antitumor activity by inhibiting purine nucleoside phosphorylase (PNPase) enzyme; NA means inactive.

The test system of experiment [4] is L1210. Put plainly: Antitumor activity against L1210 tumor cells tested in vivo; NA means inactive. It is filed as functional, organism-based. The conditions noted are these: Mus musculus.

Calls of active or inactive are those of the source. The calls are words filed in the database; no cut-off is given here.

The molecule `CC(O)[C@H]1O[C@@H](n2cnc3c(S)ncnc32)[C@H](O)[C@@H]1O` (stereo not given in full) showed an inhibition at 1 µg/mL in the experiment with L1210 [1] of 50%. The same molecule displayed a T/C in the experiment on L1210 [2] of 146. For the same molecule, the inhibition entry in experiment [3] is “inactive”.
Turning to `CC(O)[C@H]1O[C@@H](n2cnc3ncnc(O)c32)[C@H](O)[C@@H]1O` (stereo not given in full), in the experiment on L1210 [4], the T/C entry is “inactive”.
With `CC(O)[C@H]1O[C@@H](n2cnc3c(O)ncnc32)[C@H](O)[C@@H]1O` (stereo not given in full), the inhibition result in experiment [3] is “inactive”.
